Experimental data published in patent publication EP2739262B1, “USE OF A CB1 RECEPTOR ANTAGONIST AS A WHITENING AND/OR ANTI-BROWNING AGENT FOR KERATIN MATERIAL” (L'OREAL, priority 2011, dated 2013).
Where two headings read alike, the source gives them in different places.

Legend:
[1] = test system: mélanocytes épidermiques humains normaux (NHEM); test: Melanin content of melanocytes (spectrophotometry at 450 nm); assay type: cell-based; settings: result in words; for quantité de mélanine dans les mélanocytes (NHEM): via the CB1 receptor
Experimental: Des mélanocytes épidermiques humains normaux (NHEM) isolés de prépuce et fournis par Promocell (Heidelberg, Allemagne), sont cultivés pendant 24h à 37°C dans une atmosphère humide à 5% de CO2 dans un milieu de culture adapté M2 (Promocell).
L'AEA et les autres composés sont ajoutés directement dans le milieu de culture. 24h après chaque traitement, la viabilité des cellules a été mesurée par l'utilisation du colorant d'exclusion bleu Trypan (Maccarone et al., 2003).
Le mAEA et l'AEA sont testés in vitro à une concentration de 1 µM et comparés. Le mAEA est aussi utilisé à cette concentration quand il est utilisé en combinaison avec le SR1 à 0,1 µM.
La quantité en mélanine présente dans les cellules NHEM est mesurée selon une méthode connue de l'homme du métier (Xiao et al., Arch Dermatol Res 2007; 299 : 245-57). Selon cette méthode, les cellules NHEM sont traitées à la trypsine et lavées deux fois avec un tampon phosphate salin. Ensuite les échantillons sont resuspendus dans 200 µl d'eau MilliQ et 1 ml d'un mélange éthanol : éther (1:1, vol/vol) est ajouté pour éliminer les substances opaques autres que la mélanine. Après 15 minutes, les échantillons sont centrifugés à 600g pendant 5 minutes. Le culot est séché à l'air et dissout dans 200 µl de soude 1N. Les échantillons sont ensuite chauffés à 80°C pendant une heure et refroidis.
La quantité de mélanine est déterminée par spectrophotométrie à 450 nm en utilisant les contrôles standards de mélanine fournis par Sigma Chemical Co., de façon à vérifier la gamme de linéarité de l'essai. La quantité de mélanine est exprimée par rapport au contrôle.
Les résultats donnés sont les moyennes avec leurs écarts type de 3 essais indépendants, chacun réalisé en triplicata. Ils ont été comparés par analyse de variance (ANOVA).

[2] = test system: epidermes reconstruits pigmentés (ERP); test: Depigmenting effect on reconstructed pigmented epidermis (ERP): melanin quantified by image analysis of Fontana Masson stained sections; assay type: cell-based, humains; settings: for production de mélanine dans les épidermes pigmentés reconstruits: result in words
Experimental: Des épidermes pigmentés sont reconstruits sur un support collagénique (BPER) à l'aide de mélanocytes et kératinocytes humains normaux.
Les épidermes sont obtenus après 8 jours de reconstruction, les mélanocytes choisis sont de phototype estimé IV.1
Certains épidermes sont traités quotidiennement par le placebo, d'autres par le produit à tester […] à différentes concentrations (0,1 µM et 0,5µM).
Le produit à tester est évalué à deux concentrations en comparaison à son solvant seul (placebo) et à un actif dépigmentant de référence, le lucinol à 500µM. Les épidermes reconstruits ainsi traités sont irradiés ou non avec des UV.^2
Chaque condition expérimentale est réalisée en quadruplicat.
La qualité histologique des épidermes après traitement est évaluée sur coupes histologiques après coloration HES afin de déterminer l'impact du traitement sur les épidermes. Aussi la physiologie des mélanocytes est étudiée pour détecter une éventuelle mélano-cytotoxicité. Si aucune altération histologique ni aucun effet mélano-toxique du produit évalué n'est révélé, une quantification de la pigmentation est effectuée par quantification de la mélanine sur coupes histologiques par analyse d'images
Une quantification de la pigmentation par quantification microscopique de la mélanine est alors réalisée et permet d'objectiver une activité propigmentante du composé à tester.
La mélanine présente dans l'épiderme est colorée sur coupes histologiques (coloration Fontana Masson) puis quantifiée par analyse d'images. Pour cela, chaque épiderme est photographié sur toute sa largeur à l'aide d'un microscope. Environ 10 images sont acquises par épiderme (lumière blanche, grossissement X20).
La surface occupée par la mélanine est quantifiée à l'aide d'un logiciel d'analyse d'image développé à façon. Brièvement, chaque image est segmentée en 4 zones selon leur couleur (lumière, stratum corneum, épiderme vivant et BPER). La mélanine présente dans l'épiderme sous forme de grains noirs est seuillée comme étant la zone la plus sombre de l'épiderme sur le plan rouge. Les pixels occupés par la mélanine dans l'épiderme entier ou les couches vivantes sont ensuite quantifiés.
Cette quantification rend compte de la surface occupée par la mélanine ainsi que de la localisation moyenne de la mélanine dans l'épiderme.
Les résultats ci-dessous sont exprimés en pourcentage de stimulation relative par rapport au témoin cultivé en milieu de co-culture standard.

Compound: CCCCC/C=C\C/C=C\C/C=C\C/C=C\CCCC(=O)NCCO [AEA, N-arachidonoylethanolamine]
- quantité de mélanine dans les mélanocytes (NHEM) [1]: augmentent de manière significative la quantité de mélanine

Compound: CCCCc1ccc(O)cc1O [Lucinol]
- activity at 50 µM ([2]; light or radiation study, 360 h, with UV irradiation, 50µM 150mJ/cm^2 UVB SYST D15, irradiated DMSO = 131,914894, read-out: mélanine, % par rapport au témoin (DMSO 1/1000 = 100)): 31.9%
- activity at 30 µM ([2]; light or radiation study, 408 h, without UV irradiation, 30µM SYST D17, read-out: mélanine, % par rapport au témoin (DMSO 1/1000 = 100)): 10.5%

Compound: Cc1c(C(=O)NN2CCCCC2)nn(-c2ccc(Cl)cc2Cl)c1-c1ccc(Cl)cc1 [SR141716, 5-(4-Chlorophenyl)-1-(2,4-dichloro-phenyl)-4-methyl-N-(piperidin-1-yl)-1H-pyrazole-3-carboxamide]
- effets pro-pigmentants du mAEA ([1]; SR1 0,1 µM with mAEA 1 µM): empêche le mAEA d'avoir ses effets pro-pigmentants
- activity at 0.1 µM ([2]; light or radiation study, 360 h, with UV irradiation, 0,1µM 150mJ/cm^2 UVB SYST D15, irradiated DMSO = 131,914894, read-out: mélanine, % par rapport au témoin (DMSO 1/1000 = 100)): 76.6%
- activity at 0.5 µM ([2]; light or radiation study, 360 h, with UV irradiation, 0,5µM 150mJ/cm^2 UVB SYST D15, irradiated DMSO = 131,914894, read-out: mélanine, % par rapport au témoin (DMSO 1/1000 = 100)): 55.3%
- activity at 0.1 µM ([2]; light or radiation study, 408 h, without UV irradiation, 0,1µM SYST D17, read-out: mélanine, % par rapport au témoin (DMSO 1/1000 = 100)): 64.5%
- activity at 0.5 µM ([2]; light or radiation study, 408 h, without UV irradiation, 0,5µM SYST D17, read-out: mélanine, % par rapport au témoin (DMSO 1/1000 = 100)): 72.4%
- production de mélanine dans les épidermes pigmentés reconstruits ([2]; with UV irradiation, 0,1 and 0,5µM): diminution importante de la production de mélanine
- production de mélanine dans les épidermes pigmentés reconstruits ([2]; without UV irradiation, 0,1 and 0,5µM): diminution importante de la production de mélanine

Compound: CCCCC/C=C\C/C=C\C/C=C\C/C=C\CCCC(=O)N[C@H](C)CO [mAEA, R(+)-arachidonyl-1'-hydroxy-2'-propylamide]
- quantité de mélanine dans les mélanocytes (NHEM) [1]: augmentent de manière significative la quantité de mélanine
